Tests used:
HeLa = experiment: Cytotoxicity against human HeLa cells after 72 hrs by MTT assay; format: cell-based
Plasmodium falciparum = experiment: Antiplasmodial activity against Plasmodium falciparum 3D7 […] after 72 hrs by NBT dye based LDH assay; format: functional, organism-based; conditions: 3D7, 72 h

Row | IC50 (Plasmodium falciparum) | SMILES | IC50 (HeLa)
1 | 1 µM | CC[C@H](C)[C@H](NC(=O)[C@H](CC(C)C)N(C)C(=O)CCCCCCCCNC(=O)CCCc1ccc(O)cc1)C(=O)N(C)[C@@H](C(=O)N[C@@H](CCC(N)=O)C(=O)N1CCC[C@H]1C(=O)N(C)[C@@H](Cc1ccccc1)C(=O)N1CCC[C@H]1C(=O)OC)C(C)C | 29 µM
2 | 0.52 µM | CC[C@H](C)[C@H](NC(=O)[C@H](CC(C)C)N(C)C(=O)CCCCCNC(=O)CCCc1ccc(O)cc1)C(=O)N(C)[C@@H](C(=O)N[C@@H](CCC(N)=O)C(=O)N[C@H](C(=O)N(C)[C@H](Cc1ccccc1)C(=O)N1CCC[C@H]1C(=O)OC)C(C)C)C(C)C | 14 µM
